Results taken from US12599136B2, “Substituted isophthalic acid diamides and their use as herbicides” (Bayer Aktiengesellschaft, priority 2020, dated 2026).

Tests used:
Assay type in all cases: in vivo
Viola tricolor [1] = assay: Post-emergence herbicidal action against VIOTR
Summary of the method: (§1)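 Sandy loam, greenhouse; treatment 2–3 weeks after sowing, one-leaf stage. Aqueous suspension or emulsion from WP/EC sprayed on foliage (600–800 l/ha, 0.2% wetting agent). Readout: visual % action, ~3 weeks.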

Veronica persica [2] = assay: Pre-emergence herbicidal action against VERPE
Summary of the method: (§2)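 Seeds sown in sandy loam, soil-covered; compound sprayed on soil surface pre-emergence. Application: WP/EC, 600–800 l/ha, 0.2% wetting agent. Readout: visual % damage at 3 weeks.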

Cyperus esculentus [3] = assay: Pre-emergence herbicidal action against CYPES; settings: visual score after 3 weeks vs untreated controls
Summary of the method: as §2

Veronica persica [4] = assay: Post-emergence herbicidal action against VERPE; settings: visual assessment about 3 weeks after treatment
Summary of the method: as §1

Hordeum murinum [5] = assay: Pre-emergence herbicidal action against HORMU; settings: 320 g/ha; visual score after 3 weeks vs untreated controls
Summary of the method: as §2

Abutilon theophrasti [6] = assay: Pre-emergence herbicidal action against ABUTH; settings: visual score after 3 weeks vs untreated controls
Summary of the method: as §2

Pharbitis purpurea [7] = assay: Post-emergence herbicidal action against PHBPU; settings: visual assessment about 3 weeks after treatment
Summary of the method: as §1

Lolium rigidum [8] = assay: Post-emergence herbicidal action against LOLRI; settings: 80 g/ha
Summary of the method: as §1

Cyperus esculentus [9] = assay: Post-emergence herbicidal action against CYPES; settings: visual assessment about 3 weeks after treatment
Summary of the method: as §1

Matricaria inodora [10] = assay: Post-emergence herbicidal action against MATIN; settings: visual assessment about 3 weeks after treatment
Summary of the method: as §1

Abutilon theophrasti [11] = assay: Post-emergence herbicidal action against ABUTH
Summary of the method: as §1

Hordeum murinum [12] = assay: Post-emergence herbicidal action against HORMU
Summary of the method: as §1

Matricaria inodora [13] = assay: Pre-emergence herbicidal action against MATIN; settings: visual score after 3 weeks vs untreated controls
Summary of the method: as §2

Stellaria media [14] = assay: Pre-emergence herbicidal action against STEME
Summary of the method: as §2

Alopecurus myosuroides [15] = assay: Pre-emergence herbicidal action against ALOMY; settings: visual score after 3 weeks vs untreated controls
Summary of the method: as §2

Stellaria media [16] = assay: Post-emergence herbicidal action against STEME; settings: visual assessment about 3 weeks after treatment
Summary of the method: as §1

Viola tricolor [17] = assay: Pre-emergence herbicidal action against VIOTR
Summary of the method: as §2

Alopecurus myosuroides [18] = assay: Post-emergence herbicidal action against ALOMY
Summary of the method: as §1

Avena fatua [19] = assay: Pre-emergence herbicidal action against AVEFA; settings: visual score after 3 weeks vs untreated controls
Summary of the method: as §2

Setaria viridis [20] = assay: Pre-emergence herbicidal action against SETVI
Summary of the method: as §2

Polygonum convolvulus [21] = assay: Pre-emergence herbicidal action against POLCO; settings: 320 g/ha
Summary of the method: as §2

Echinochloa crus-galli [22] = assay: Pre-emergence herbicidal action against ECHCG; settings: visual score after 3 weeks vs untreated controls
Summary of the method: as §2

Pharbitis purpurea [23] = assay: Pre-emergence herbicidal action against PHBPU; settings: 320 g/ha; visual score after 3 weeks vs untreated controls
Summary of the method: as §2

Polygonum convolvulus [24] = assay: Post-emergence herbicidal action against POLCO; settings: 80 g/ha, visual assessment about 3 weeks after treatment
Summary of the method: as §1

Echinochloa crus-galli [25] = assay: Post-emergence herbicidal action against ECHCG; settings: visual assessment about 3 weeks after treatment
Summary of the method: as §1

Lolium rigidum [26] = assay: Pre-emergence herbicidal action against LOLRI; settings: 320 g/ha
Summary of the method: as §2

Amaranthus retroflexus [27] = assay: Post-emergence herbicidal action against AMARE; settings: visual assessment about 3 weeks after treatment
Summary of the method: as §1

Amaranthus retroflexus [28] = assay: Pre-emergence herbicidal action against AMARE; settings: visual score after 3 weeks vs untreated controls
Summary of the method: as §2

Setaria viridis [29] = assay: Post-emergence herbicidal action against SETVI; settings: visual assessment about 3 weeks after treatment
Summary of the method: as §1

Avena fatua [30] = assay: Post-emergence herbicidal action against AVEFA; settings: visual assessment about 3 weeks after treatment
Summary of the method: as §1

## CCn1nnnc1NC(=O)c1ccc(C(F)(F)F)c(C(=O)N(C)CC2CC2)c1Cl [Example 2-126]
Viola tricolor [1]; 5 g/ha
  Post-emergence action against VIOTR in %: 100%
Viola tricolor [1]; 20 g/ha
  Post-emergence action against VIOTR in %: 100%
Viola tricolor [1]; 80 g/ha
  Post-emergence action against VIOTR in %: 100%
Veronica persica [2]; 80 g/ha
  Pre-emergence action against VERPE: 80%
Veronica persica [2]; 320 g/ha
  Pre-emergence action against VERPE: 90%
Cyperus esculentus [3]; 80 g/ha
  Pre-emergence action against CYPES: 80%
Cyperus esculentus [3]; 320 g/ha
  Pre-emergence action against CYPES: 90%
Veronica persica [4]; 20 g/ha
  Post-emergence action against VERPE in %: 80%
Veronica persica [4]; 80 g/ha
  Post-emergence action against VERPE in %: 90%
Hordeum murinum [5]
  Pre-emergence action against HORMU: 100%
Abutilon theophrasti [6]; 20 g/ha
  Pre-emergence action against ABUTH: 100%
Abutilon theophrasti [6]; 80 g/ha
  Pre-emergence action against ABUTH: 100%
Abutilon theophrasti [6]; Dosage column 320 g/ha (heading prints 3200 g/ha)
  Pre-emergence action against ABUTH: 100%
Pharbitis purpurea [7]; 5 g/ha
  Post-emergence action against PHBPU in %: 90%
Pharbitis purpurea [7]; 20 g/ha
  Post-emergence action against PHBPU in %: 100%
Pharbitis purpurea [7]; 80 g/ha
  Post-emergence action against PHBPU in %: 100%
Lolium rigidum [8]
  Post-emergence action against LOLRI in %: 80%
Cyperus esculentus [9]; 20 g/ha
  Post-emergence action against CYPES in %: 80%
Cyperus esculentus [9]; 80 g/ha
  Post-emergence action against CYPES in %: 90%
Matricaria inodora [10]; 5 g/ha
  Post-emergence action against MATIN in %: 80%
Matricaria inodora [10]; 20 g/ha
  Post-emergence action against MATIN in %: 100%
Matricaria inodora [10]; 80 g/ha
  Post-emergence action against MATIN in %: 100%
Abutilon theophrasti [11]; 5 g/ha
  Post-emergence action against ABUTH: 80%
Abutilon theophrasti [11]; 20 g/ha
  Post-emergence action against ABUTH: 100%
Abutilon theophrasti [11]; 80 g/ha
  Post-emergence action against ABUTH: 100%
Hordeum murinum [12]; 5 g/ha
  Post-emergence action against HORMU in %: 80%
Hordeum murinum [12]; 20 g/ha
  Post-emergence action against HORMU in %: 90%
Hordeum murinum [12]; 80 g/ha
  Post-emergence action against HORMU in %: 100%
Matricaria inodora [13]; 20 g/ha
  Pre-emergence action against MATIN: 80%
Matricaria inodora [13]; 80 g/ha
  Pre-emergence action against MATIN: 90%
Matricaria inodora [13]; 320 g/ha
  Pre-emergence action against MATIN: 100%
Stellaria media [14]; 20 g/ha
  Pre-emergence action against STEME: 80%
Stellaria media [14]; 320 g/ha
  Pre-emergence action against STEME: 90%
Alopecurus myosuroides [15]; 80 g/ha
  Pre-emergence action against ALOMY: 80%
Alopecurus myosuroides [15]; 320 g/ha
  Pre-emergence action against ALOMY: 100%
Stellaria media [16]; 5 g/ha
  Post-emergence action against STEME in %: 100%
Stellaria media [16]; 20 g/ha
  Post-emergence action against STEME in %: 100%
Stellaria media [16]; 80 g/ha
  Post-emergence action against STEME in %: 100%
Viola tricolor [17]; 20 g/ha
  Pre-emergence action against VIOTR: 80%
Viola tricolor [17]; 80 g/ha
  Pre-emergence action against VIOTR: 100%
Viola tricolor [17]; 320 g/ha
  Pre-emergence action against VIOTR: 100%
Alopecurus myosuroides [18]; 5 g/ha
  Post-emergence action against ALOMY: 80%
Alopecurus myosuroides [18]; 20 g/ha
  Post-emergence action against ALOMY: 90%
Alopecurus myosuroides [18]; 80 g/ha
  Post-emergence action against ALOMY: 100%
Avena fatua [19]; 80 g/ha
  Pre-emergence action against AVEFA: 80%
Avena fatua [19]; 320 g/ha
  Pre-emergence action against AVEFA: 100%
Setaria viridis [20]; 80 g/ha
  Pre-emergence action against SETVI: 100%
Setaria viridis [20]; 320 g/ha
  Pre-emergence action against SETVI: 100%
Polygonum convolvulus [21]
  Pre-emergence action against POLCO: 100%
Echinochloa crus-galli [22]; 80 g/ha
  Pre-emergence action against ECHCG: 80%
Echinochloa crus-galli [22]; 320 g/ha
  Pre-emergence action against ECHCG: 100%
Pharbitis purpurea [23]
  Pre-emergence action against PHBPU: 100%
Polygonum convolvulus [24]
  Post-emergence action against POLCO in %: 80%
Echinochloa crus-galli [25]; 5 g/ha
  Post-emergence action against ECHCG in %: 90%
Echinochloa crus-galli [25]; 20 g/ha
  Post-emergence action against ECHCG in %: 100%
Echinochloa crus-galli [25]; 80 g/ha
  Post-emergence action against ECHCG in %: 100%
Lolium rigidum [26]
  Pre-emergence action against LOLRI: 90%
Amaranthus retroflexus [27]; 5 g/ha
  Post-emergence action against AMARE in %: 100%
Amaranthus retroflexus [27]; 20 g/ha
  Post-emergence action against AMARE in %: 100%
Amaranthus retroflexus [27]; 80 g/ha
  Post-emergence action against AMARE in %: 100%
Amaranthus retroflexus [28]; 20 g/ha
  Pre-emergence action against AMARE: 90%
Amaranthus retroflexus [28]; 80 g/ha
  Pre-emergence action against AMARE: 100%
Amaranthus retroflexus [28]; 320 g/ha
  Pre-emergence action against AMARE: 100%
Setaria viridis [29]; 5 g/ha
  Post-emergence action against SETVI in %: 100%
Setaria viridis [29]; 20 g/ha
  Post-emergence action against SETVI in %: 100%
Setaria viridis [29]; 80 g/ha
  Post-emergence action against SETVI in %: 100%
Avena fatua [30]; 20 g/ha
  Post-emergence action against AVEFA in %: 100%
Avena fatua [30]; 80 g/ha
  Post-emergence action against AVEFA in %: 100%
